From patent publication US9580444B2, “Polycyclic pyrazolinone derivative and herbicide comprising same as effective component thereof” (priority 2013, dated 2017)

Experiments:
Assay in all cases: Test Example-1: herbicidal effect by a treatment before weeds are generated under submerged conditions
Type in all cases: in vivo
Details in all cases: 500 g a.i/ha, pre-emergence treatment, about 15 days after treatment, score 0-5
[1] = system: Cyperus difformis (smallflower umbrella plant)
Procedure: (§1) Using the formulation prepared according to the methods described above, the herbicidal effect of the bicyclic pyrazolinone derivative of the invention according to the methods shown in Test Examples below was examined. The herbicidal effect with respect to the test weeds or the phytotoxicity with respect to the test crops was examined according to the following criteria, and evaluated in six stage scores of 0 to 5.
(§2) A plastic cup of 30 cm^2 was filled with paddy soil, soil puddling was performed, seeds of Echinochloa oryzicola (barnyard grass), Cyperus difformis (smallflower umbrella plant), Monochoria vaginalis (monochoria), Scirpus juncoides (bulrush), and Eleocharis acicularis (needle spikerush), and Lindernia procumbens (common false pimpernel), Rotala indica (indian toothcup), Elatine triandra (waterwort) as other annual broad leaf weeds were seeded therein, and kept in a submerged state. A wettable powder or an emulsifiable concentrate of the compound of the present invention prepared according to Formulation Example was diluted on the weed seeding day, and a submersing treatment was performed so as to be a predetermined dosage. The herbicidal effect with respect to the test weeds about 15 days after the treatment was evaluated according to the evaluation criteria in six stages of 0 to 5 described above.

[2] = system: Eleocharis acicularis (needle spikerush)
Procedure: as §1, §2

[3] = system: other annual broad leaf weeds (Lindernia procumbens, Rotala indica, Elatine triandra)
Procedure: as §1, §2

[4] = system: Monochoria vaginalis (monochoria)
Procedure: as §1, §2

[5] = system: Scirpus juncoides (bulrush)
Procedure: as §1, §2

[6] = system: Echinochloa oryzicola (barnyard grass)
Procedure: as §1, §2

Structure (SMILES)	Herbicidal effect Cyperus difformis [1]	Herbicidal effect Eleocharis acicularis [2]	Herbicidal effect Broadleaf weed [3]	Herbicidal effect Monochoria vaginalis [4]	Herbicidal effect Scirpus juncoides [5]	Herbicidal effect Echinochloa oryzicola [6]
COC(=O)C=C(COc1cc(-c2c(Cl)n3n(c2=O)CCCC3)c(Cl)cc1Cl)OC (mixture of isomers) [Compound 2-5]	5 (Herbicidal effect/phytotoxicity was 90% or greater)	5 (Herbicidal effect/phytotoxicity was 90% or greater)	5 (Herbicidal effect/phytotoxicity was 90% or greater)	5 (Herbicidal effect/phytotoxicity was 90% or greater)	5 (Herbicidal effect/phytotoxicity was 90% or greater)	5 (Herbicidal effect/phytotoxicity was 90% or greater)
C=CCOC(=O)C=C(COc1cc(-c2c(Cl)n3n(c2=O)CCCC3)c(F)cc1Cl)OCC (mixture of isomers) [Compound 2-11]	5 (Herbicidal effect/phytotoxicity was 90% or greater)	5 (Herbicidal effect/phytotoxicity was 90% or greater)	5 (Herbicidal effect/phytotoxicity was 90% or greater)	5 (Herbicidal effect/phytotoxicity was 90% or greater)	5 (Herbicidal effect/phytotoxicity was 90% or greater)	5 (Herbicidal effect/phytotoxicity was 90% or greater)
CCOC(=CC(=O)OC)COc1cc(-c2c(Cl)n3n(c2=O)CCCC3)c(F)cc1Cl (mixture of isomers) [Compound 2-12]	5 (Herbicidal effect/phytotoxicity was 90% or greater)	5 (Herbicidal effect/phytotoxicity was 90% or greater)	5 (Herbicidal effect/phytotoxicity was 90% or greater)	5 (Herbicidal effect/phytotoxicity was 90% or greater)	5 (Herbicidal effect/phytotoxicity was 90% or greater)	5 (Herbicidal effect/phytotoxicity was 90% or greater)
CCCOC(=CC(=O)OC)COc1cc(-c2c(Cl)n3n(c2=O)CCCC3)c(F)cc1Cl (mixture of isomers) [Compound 2-13]	5 (Herbicidal effect/phytotoxicity was 90% or greater)	5 (Herbicidal effect/phytotoxicity was 90% or greater)	5 (Herbicidal effect/phytotoxicity was 90% or greater)	5 (Herbicidal effect/phytotoxicity was 90% or greater)	5 (Herbicidal effect/phytotoxicity was 90% or greater)	5 (Herbicidal effect/phytotoxicity was 90% or greater)
CCOC(=O)C=C(COc1cc(-c2c(Cl)n3n(c2=O)CCCC3)c(F)cc1Cl)OCC (mixture of isomers) [Compound 2-19]	5 (Herbicidal effect/phytotoxicity was 90% or greater)	5 (Herbicidal effect/phytotoxicity was 90% or greater)	5 (Herbicidal effect/phytotoxicity was 90% or greater)	5 (Herbicidal effect/phytotoxicity was 90% or greater)	5 (Herbicidal effect/phytotoxicity was 90% or greater)	5 (Herbicidal effect/phytotoxicity was 90% or greater)
CCOC(=CC(=O)OC(C)C)COc1cc(-c2c(Cl)n3n(c2=O)CCCC3)c(F)cc1Cl [Compound 2-26]	5 (Herbicidal effect/phytotoxicity was 90% or greater)	5 (Herbicidal effect/phytotoxicity was 90% or greater)	5 (Herbicidal effect/phytotoxicity was 90% or greater)	5 (Herbicidal effect/phytotoxicity was 90% or greater)	5 (Herbicidal effect/phytotoxicity was 90% or greater)	5 (Herbicidal effect/phytotoxicity was 90% or greater)
C=C(C)COC(=O)C=C(COc1cc(-c2c(Cl)n3n(c2=O)CCCC3)c(F)cc1Cl)OCCC [Compound 2-33]	5 (Herbicidal effect/phytotoxicity was 90% or greater)	5 (Herbicidal effect/phytotoxicity was 90% or greater)	5 (Herbicidal effect/phytotoxicity was 90% or greater)	5 (Herbicidal effect/phytotoxicity was 90% or greater)	5 (Herbicidal effect/phytotoxicity was 90% or greater)	5 (Herbicidal effect/phytotoxicity was 90% or greater)
CCCOC(=CC(=O)OCC(C)C)COc1cc(-c2c(Cl)n3n(c2=O)CCCC3)c(F)cc1Cl [Compound 2-34]	5 (Herbicidal effect/phytotoxicity was 90% or greater)	5 (Herbicidal effect/phytotoxicity was 90% or greater)	5 (Herbicidal effect/phytotoxicity was 90% or greater)	5 (Herbicidal effect/phytotoxicity was 90% or greater)	5 (Herbicidal effect/phytotoxicity was 90% or greater)	5 (Herbicidal effect/phytotoxicity was 90% or greater)
O=c1c(-c2cc(Oc3ccccc3O)c(Cl)cc2F)c(Cl)n2n1CCCC2 [Compound 3-1]	5 (Herbicidal effect/phytotoxicity was 90% or greater)	5 (Herbicidal effect/phytotoxicity was 90% or greater)	5 (Herbicidal effect/phytotoxicity was 90% or greater)	5 (Herbicidal effect/phytotoxicity was 90% or greater)	5 (Herbicidal effect/phytotoxicity was 90% or greater)	5 (Herbicidal effect/phytotoxicity was 90% or greater)
O=c1c(-c2cc(Oc3cccc(O)c3)c(Cl)cc2F)c(Cl)n2n1CCCC2 [Compound 3-4]	5 (Herbicidal effect/phytotoxicity was 90% or greater)	5 (Herbicidal effect/phytotoxicity was 90% or greater)	5 (Herbicidal effect/phytotoxicity was 90% or greater)	5 (Herbicidal effect/phytotoxicity was 90% or greater)	5 (Herbicidal effect/phytotoxicity was 90% or greater)	5 (Herbicidal effect/phytotoxicity was 90% or greater)
COc1cccc(Oc2cc(-c3c(Cl)n4n(c3=O)CCCC4)c(F)cc2Cl)c1 [Compound 3-5]	5 (Herbicidal effect/phytotoxicity was 90% or greater)	5 (Herbicidal effect/phytotoxicity was 90% or greater)	5 (Herbicidal effect/phytotoxicity was 90% or greater)	5 (Herbicidal effect/phytotoxicity was 90% or greater)	5 (Herbicidal effect/phytotoxicity was 90% or greater)	5 (Herbicidal effect/phytotoxicity was 90% or greater)
COc1ccc(Oc2cc(-c3c(Cl)n4n(c3=O)CCCC4)c(F)cc2Cl)cc1 [Compound 3-7]	5 (Herbicidal effect/phytotoxicity was 90% or greater)	5 (Herbicidal effect/phytotoxicity was 90% or greater)	5 (Herbicidal effect/phytotoxicity was 90% or greater)	5 (Herbicidal effect/phytotoxicity was 90% or greater)	5 (Herbicidal effect/phytotoxicity was 90% or greater)	5 (Herbicidal effect/phytotoxicity was 90% or greater)
